Measurements from ChEMBL document CHEMBL4130538, “Discovery of novel anti-angiogenesis agents. Part 7: Multitarget inhibitors of VEGFR-2, TIE-2 and EphB4” (Eur J Med Chem, 2017).

Key:
Angiopoietin-1 receptor = Angiopoietin-1 receptor (Homo sapiens, UniProt Q02763); assay: Inhibition of TIE-2 (unknown origin) after 4 hrs by ADP-Glo luminescence assay
[1] = target: Vascular endothelial growth factor receptor 2 (Homo sapiens, UniProt P35968); assay: Inhibition of VEGFR-2 (unknown origin) after 60 mins by ADP-Glo luminescence assay
Ephrin type-B receptor 4 = target: T1, Ephrin type-B receptor 4 (Homo sapiens, UniProt P54760); assay: Inhibition of EphB4 (unknown origin) after 4 hrs by ADP-Glo luminescence assay
T1 sequence (P54760 whole entry): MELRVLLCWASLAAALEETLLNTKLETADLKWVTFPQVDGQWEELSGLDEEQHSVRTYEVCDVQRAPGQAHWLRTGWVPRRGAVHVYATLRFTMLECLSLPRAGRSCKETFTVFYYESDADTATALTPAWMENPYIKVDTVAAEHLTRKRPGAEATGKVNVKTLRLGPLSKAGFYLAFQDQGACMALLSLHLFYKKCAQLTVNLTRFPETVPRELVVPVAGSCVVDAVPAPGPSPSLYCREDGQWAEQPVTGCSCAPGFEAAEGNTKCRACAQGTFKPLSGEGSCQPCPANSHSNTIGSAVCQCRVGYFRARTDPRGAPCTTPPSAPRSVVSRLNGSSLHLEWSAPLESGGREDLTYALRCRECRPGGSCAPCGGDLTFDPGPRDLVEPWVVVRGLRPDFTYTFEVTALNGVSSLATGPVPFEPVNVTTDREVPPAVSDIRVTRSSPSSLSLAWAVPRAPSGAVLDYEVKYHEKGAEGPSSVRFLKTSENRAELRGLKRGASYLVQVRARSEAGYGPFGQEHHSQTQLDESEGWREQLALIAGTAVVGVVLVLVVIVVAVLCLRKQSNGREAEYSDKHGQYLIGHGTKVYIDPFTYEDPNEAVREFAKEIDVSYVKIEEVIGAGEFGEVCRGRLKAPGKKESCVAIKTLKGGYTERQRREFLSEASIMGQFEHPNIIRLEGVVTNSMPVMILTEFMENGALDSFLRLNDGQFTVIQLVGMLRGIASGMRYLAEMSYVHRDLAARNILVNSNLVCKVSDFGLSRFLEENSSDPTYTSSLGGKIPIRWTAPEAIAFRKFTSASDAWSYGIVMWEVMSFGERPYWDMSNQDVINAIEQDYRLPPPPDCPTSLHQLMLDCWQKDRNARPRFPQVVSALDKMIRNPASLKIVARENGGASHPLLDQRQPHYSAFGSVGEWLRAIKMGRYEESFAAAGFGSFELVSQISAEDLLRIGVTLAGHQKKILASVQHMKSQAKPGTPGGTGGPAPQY

EA.hy 926 = assay: Anti-angiogenic activity in human EAhy926 cells as growth inhibition after 24 hrs by CCK-8 assay; format: cell-based; details: EA.hy 926, 24 h
[2] = target: Vascular endothelial growth factor receptor 3 (Homo sapiens, UniProt P35916); assay: Inhibition of VEGFR-3 (unknown origin)
[3] = target: Insulin-like growth factor 1 receptor (Homo sapiens, UniProt P08069); assay: Inhibition of IGF1-R (unknown origin)
[4] = target: Fibroblast growth factor receptor 4 (Homo sapiens, UniProt P22455); assay: Inhibition of FGFR-4 (unknown origin)
[5] = target: Fibroblast growth factor receptor 1 (Homo sapiens, UniProt P11362); assay: Inhibition of FGFR-1 (unknown origin)
[6] = target: Epidermal growth factor receptor (Homo sapiens, UniProt P00533); assay: Inhibition of EGFR (unknown origin)
[7] = target: Vascular endothelial growth factor receptor 1 (Homo sapiens, UniProt P17948); assay: Inhibition of VEGFR-1 (unknown origin)
[8] = target: Serine/threonine-protein kinase B-raf (Homo sapiens, UniProt P15056); assay: Inhibition of BRAF (unknown origin)
[9] = target: Mast/stem cell growth factor receptor Kit (Homo sapiens, UniProt P10721); assay: Inhibition of cKIT (unknown origin)
[10] = target: Platelet-derived growth factor receptor beta (Homo sapiens, UniProt P09619); assay: Inhibition of PDGFRbeta (unknown origin)
[11] = target: Hepatocyte growth factor receptor (Homo sapiens, UniProt P08581); assay: Inhibition of cMET (unknown origin)

Angiopoietin-1 receptor, sequence (Q02763 whole entry): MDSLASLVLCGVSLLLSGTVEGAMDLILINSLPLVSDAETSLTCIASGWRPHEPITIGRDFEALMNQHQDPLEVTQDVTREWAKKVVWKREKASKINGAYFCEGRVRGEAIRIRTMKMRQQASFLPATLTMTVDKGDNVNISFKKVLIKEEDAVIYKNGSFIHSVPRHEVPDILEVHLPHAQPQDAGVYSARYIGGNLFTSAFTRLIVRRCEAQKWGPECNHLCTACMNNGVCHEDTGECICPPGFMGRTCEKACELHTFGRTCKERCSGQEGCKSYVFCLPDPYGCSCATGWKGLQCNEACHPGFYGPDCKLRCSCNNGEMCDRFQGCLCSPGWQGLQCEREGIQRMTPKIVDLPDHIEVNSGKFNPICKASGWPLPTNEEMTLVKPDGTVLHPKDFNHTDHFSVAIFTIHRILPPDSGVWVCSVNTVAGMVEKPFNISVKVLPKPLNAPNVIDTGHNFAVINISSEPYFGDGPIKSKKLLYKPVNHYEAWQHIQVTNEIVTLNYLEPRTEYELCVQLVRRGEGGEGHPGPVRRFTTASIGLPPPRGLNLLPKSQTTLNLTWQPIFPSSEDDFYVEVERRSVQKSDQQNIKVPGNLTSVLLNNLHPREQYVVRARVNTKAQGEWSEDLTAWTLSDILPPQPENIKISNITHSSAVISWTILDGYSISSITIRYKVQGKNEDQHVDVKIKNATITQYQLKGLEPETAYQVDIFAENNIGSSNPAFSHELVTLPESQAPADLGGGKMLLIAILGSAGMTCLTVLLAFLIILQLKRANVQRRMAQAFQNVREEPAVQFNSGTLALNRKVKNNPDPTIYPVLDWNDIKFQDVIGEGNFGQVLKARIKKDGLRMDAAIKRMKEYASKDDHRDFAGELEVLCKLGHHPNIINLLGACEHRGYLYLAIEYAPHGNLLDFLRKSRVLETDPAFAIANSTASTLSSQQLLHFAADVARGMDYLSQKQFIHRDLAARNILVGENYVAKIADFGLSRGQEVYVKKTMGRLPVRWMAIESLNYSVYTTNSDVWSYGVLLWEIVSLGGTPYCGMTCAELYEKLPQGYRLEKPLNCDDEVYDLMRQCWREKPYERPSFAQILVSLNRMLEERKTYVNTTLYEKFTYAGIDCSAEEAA
Vascular endothelial growth factor receptor 2, sequence (P35968 whole entry): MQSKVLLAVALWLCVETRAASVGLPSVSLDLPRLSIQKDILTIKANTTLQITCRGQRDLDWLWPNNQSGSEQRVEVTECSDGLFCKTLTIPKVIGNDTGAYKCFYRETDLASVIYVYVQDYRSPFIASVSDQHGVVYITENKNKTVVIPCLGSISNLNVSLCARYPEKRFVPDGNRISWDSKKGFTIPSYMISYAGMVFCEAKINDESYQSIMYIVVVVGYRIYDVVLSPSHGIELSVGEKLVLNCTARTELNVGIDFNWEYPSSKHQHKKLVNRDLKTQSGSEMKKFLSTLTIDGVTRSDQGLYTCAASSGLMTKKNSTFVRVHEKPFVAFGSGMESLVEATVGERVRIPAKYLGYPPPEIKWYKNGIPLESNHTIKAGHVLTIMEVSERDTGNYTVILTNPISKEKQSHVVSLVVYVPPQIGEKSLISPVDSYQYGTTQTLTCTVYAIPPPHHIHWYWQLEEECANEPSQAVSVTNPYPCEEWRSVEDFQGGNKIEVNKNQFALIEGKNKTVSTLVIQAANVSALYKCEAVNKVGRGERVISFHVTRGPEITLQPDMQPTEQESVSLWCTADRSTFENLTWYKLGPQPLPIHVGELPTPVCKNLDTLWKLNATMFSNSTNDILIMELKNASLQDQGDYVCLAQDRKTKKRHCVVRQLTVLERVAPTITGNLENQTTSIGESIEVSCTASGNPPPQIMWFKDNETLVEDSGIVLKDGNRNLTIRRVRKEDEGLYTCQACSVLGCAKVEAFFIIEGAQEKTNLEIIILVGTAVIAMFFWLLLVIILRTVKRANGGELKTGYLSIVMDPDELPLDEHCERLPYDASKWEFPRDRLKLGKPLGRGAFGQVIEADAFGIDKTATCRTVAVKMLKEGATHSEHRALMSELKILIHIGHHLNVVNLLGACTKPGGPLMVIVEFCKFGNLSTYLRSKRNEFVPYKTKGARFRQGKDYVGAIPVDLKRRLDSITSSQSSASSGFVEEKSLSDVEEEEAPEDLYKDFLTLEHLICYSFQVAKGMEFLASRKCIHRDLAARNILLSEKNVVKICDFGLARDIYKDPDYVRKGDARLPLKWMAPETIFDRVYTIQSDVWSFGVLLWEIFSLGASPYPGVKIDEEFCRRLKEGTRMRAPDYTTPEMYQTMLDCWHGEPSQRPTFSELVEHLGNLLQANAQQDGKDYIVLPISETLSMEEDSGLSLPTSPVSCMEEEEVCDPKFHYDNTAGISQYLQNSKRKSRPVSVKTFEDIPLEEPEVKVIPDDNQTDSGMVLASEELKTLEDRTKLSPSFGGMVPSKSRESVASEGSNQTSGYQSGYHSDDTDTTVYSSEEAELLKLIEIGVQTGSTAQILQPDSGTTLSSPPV
Mast/stem cell growth factor receptor Kit, sequence (P10721 whole entry): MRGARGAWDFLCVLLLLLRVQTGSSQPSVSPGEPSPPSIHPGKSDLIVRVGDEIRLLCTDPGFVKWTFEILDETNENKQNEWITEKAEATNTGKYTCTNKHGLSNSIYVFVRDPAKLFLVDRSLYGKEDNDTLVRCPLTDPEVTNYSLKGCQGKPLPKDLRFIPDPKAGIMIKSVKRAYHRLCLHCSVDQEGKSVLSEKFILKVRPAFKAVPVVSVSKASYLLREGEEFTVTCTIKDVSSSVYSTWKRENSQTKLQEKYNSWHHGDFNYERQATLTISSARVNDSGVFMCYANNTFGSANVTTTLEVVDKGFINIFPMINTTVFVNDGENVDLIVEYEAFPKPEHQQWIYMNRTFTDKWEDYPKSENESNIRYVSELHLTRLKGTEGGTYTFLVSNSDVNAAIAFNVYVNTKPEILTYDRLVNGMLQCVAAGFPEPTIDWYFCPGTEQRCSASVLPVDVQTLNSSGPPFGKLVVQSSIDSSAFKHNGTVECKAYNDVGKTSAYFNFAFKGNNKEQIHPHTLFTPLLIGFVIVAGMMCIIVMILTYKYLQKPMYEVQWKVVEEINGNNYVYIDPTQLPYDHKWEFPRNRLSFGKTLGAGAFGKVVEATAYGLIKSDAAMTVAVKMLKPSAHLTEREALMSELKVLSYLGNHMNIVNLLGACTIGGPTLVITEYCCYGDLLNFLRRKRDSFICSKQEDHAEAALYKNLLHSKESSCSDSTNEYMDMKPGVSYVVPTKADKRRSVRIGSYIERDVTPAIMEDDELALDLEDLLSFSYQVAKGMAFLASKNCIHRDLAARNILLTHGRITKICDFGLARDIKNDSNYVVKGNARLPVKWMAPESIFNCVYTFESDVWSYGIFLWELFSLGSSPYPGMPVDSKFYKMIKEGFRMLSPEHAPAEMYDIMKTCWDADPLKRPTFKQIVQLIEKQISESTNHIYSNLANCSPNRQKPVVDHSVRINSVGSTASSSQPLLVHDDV
Platelet-derived growth factor receptor beta, sequence (P09619 whole entry): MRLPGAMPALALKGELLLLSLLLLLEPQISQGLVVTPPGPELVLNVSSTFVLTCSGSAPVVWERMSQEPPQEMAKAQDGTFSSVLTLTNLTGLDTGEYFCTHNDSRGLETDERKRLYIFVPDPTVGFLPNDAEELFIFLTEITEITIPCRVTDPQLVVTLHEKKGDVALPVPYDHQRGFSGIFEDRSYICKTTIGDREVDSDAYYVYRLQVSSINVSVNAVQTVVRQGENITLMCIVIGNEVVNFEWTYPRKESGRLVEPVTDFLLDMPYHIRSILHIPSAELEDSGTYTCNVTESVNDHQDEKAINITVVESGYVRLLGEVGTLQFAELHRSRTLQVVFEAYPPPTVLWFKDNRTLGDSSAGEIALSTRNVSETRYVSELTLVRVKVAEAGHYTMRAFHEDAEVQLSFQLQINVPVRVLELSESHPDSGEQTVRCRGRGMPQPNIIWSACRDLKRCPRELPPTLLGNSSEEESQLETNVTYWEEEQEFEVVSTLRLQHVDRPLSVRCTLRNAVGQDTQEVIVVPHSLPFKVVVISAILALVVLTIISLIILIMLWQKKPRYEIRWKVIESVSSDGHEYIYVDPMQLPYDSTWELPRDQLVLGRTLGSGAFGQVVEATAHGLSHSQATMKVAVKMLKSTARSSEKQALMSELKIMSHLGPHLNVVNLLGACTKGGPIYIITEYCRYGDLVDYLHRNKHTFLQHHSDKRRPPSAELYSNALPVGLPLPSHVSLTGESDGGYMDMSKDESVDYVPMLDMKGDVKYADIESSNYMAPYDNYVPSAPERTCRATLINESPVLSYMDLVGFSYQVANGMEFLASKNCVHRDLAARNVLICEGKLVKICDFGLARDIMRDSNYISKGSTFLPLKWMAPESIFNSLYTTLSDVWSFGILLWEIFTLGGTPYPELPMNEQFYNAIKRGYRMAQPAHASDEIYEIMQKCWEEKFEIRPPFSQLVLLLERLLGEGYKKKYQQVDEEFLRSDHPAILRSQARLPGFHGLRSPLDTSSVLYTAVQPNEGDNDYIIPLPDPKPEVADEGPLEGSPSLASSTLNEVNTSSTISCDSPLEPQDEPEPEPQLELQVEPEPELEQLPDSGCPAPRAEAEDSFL

| Compound | IC50 (Angiopoietin-1 receptor) | also measured |
| --- | --- | --- |
| C=CC(=O)Nc1ccc(-c2ccc(NC(=O)Nc3ccc(C(C)(C)C)cc3)cc2)cn1 | 21.3 nM |  |
| C=CC(=O)Nc1ccc(-c2ccc(NC(=O)Nc3cccc(F)c3)cc2)cn1 | 90.9 nM |  |
| Nc1ncc2ccc(-c3ccc(NC(=O)C4(C(=O)Nc5ccc(OC(F)(F)F)cc5Br)CC4)cc3)cc2n1 | > 500 nM |  |
| O=C(Nc1cccc(-c2ccc3c(=O)[nH]cnc3c2)c1)Nc1ccc(Cl)c(C(F)(F)F)c1 | > 500 nM |  |
| O=C(Nc1cccc(Cl)c1)Nc1cccc(-c2ccc3c(=O)[nH]cnc3c2)c1 | 24.8 nM |  |
| Nc1ncc2ccc(-c3ccc(NC(=O)C4(C(=O)Nc5ccc(F)c(F)c5)CC4)cc3)cc2n1 | 14.5 nM |  |
| C=CC(=O)Nc1ccc(-c2ccc(NC(=O)Nc3ccc(Cl)c(C(F)(F)F)c3)cc2)cn1 | 9.77 nM |  |
| O=C(Nc1cccc(-c2ccc3c(=O)[nH]cnc3c2)c1)Nc1cc(C(F)(F)F)cc(C(F)(F)F)c1 | 245 nM |  |
| Nc1ncc2ccc(-c3ccc(NC(=O)C4(C(=O)Nc5cc(Br)cc(C(F)(F)F)c5)CC4)cc3)cc2n1 | 65.3 nM |  |
| Nc1ncc2ccc(-c3ccc(NC(=O)C4(C(=O)Nc5ccc(Cl)cc5Cl)CC4)cc3)cc2n1 | 54.9 nM |  |
| C=CC(=O)Nc1ccc(-c2ccc(NC(=O)Nc3ccc(F)cc3)cc2)cn1 | 105 nM |  |
| C=CC(=O)Nc1ccc(-c2ccc(NC(=O)Nc3cccc(Cl)c3)cc2)cn1 | 5.63 nM | IC50 [2]: 45 nM; IC50 [3]: 40 nM; IC50 [4]: 1080 nM; IC50 [5]: 200 nM; IC50 [6]: 8.7 nM; IC50 [7]: 25 nM; IC50 [8]: 32 nM; IC50 [9]: 68.9 nM; IC50 [10]: 180 nM; IC50 [11]: 57.8 nM |
| Nc1ncc2ccc(-c3ccc(NC(=O)C4(C(=O)Nc5ccc(Cl)c(Cl)c5)CC4)cc3)cc2n1 | > 500 nM |  |
| C=CC(=O)Nc1ccc(-c2ccc(NC(=O)Nc3ccc(C)c(Cl)c3)cc2)cn1 | 14.2 nM |  |
| C=CC(=O)Nc1ccc(-c2ccc(NC(=O)Nc3cccc(C(F)(F)F)c3)cc2)cn1 | 3.59 nM |  |

Second part, led by results:

| IC50 (Angiopoietin-1 receptor) | Compound | also measured |
| --- | --- | --- |
| > 500 nM | Nc1ncc2ccc(-c3ccc(NC(=O)C4(C(=O)Nc5ccc(OCCCN6CCOCC6)c(F)c5)CC4)cc3)cc2n1 | IC50 [1]: > 500 nM; IC50 (Ephrin type-B receptor 4): > 500 nM; IC50 (EA.hy 926): 32200 nM |
| 16.6 nM | O=C(Nc1cccc(-c2ccc3c(=O)[nH]cnc3c2)c1)Nc1ccc(F)c(F)c1 |  |
| 9.19 nM | C=CC(=O)Nc1ccc(-c2ccc(NC(=O)Nc3cccc(C(C)C)c3)cc2)cn1 |  |
| 432 nM | Nc1ncc2ccc(-c3ccc(NC(=O)C4(C(=O)Nc5ccc6c(c5)OCO6)CC4)cc3)cc2n1 | IC50 [1]: > 500 nM; IC50 (Ephrin type-B receptor 4): > 500 nM; IC50 (EA.hy 926): 29200 nM |
| 12.8 nM | O=C(Nc1cccc(-c2ccc3c(=O)[nH]cnc3c2)c1)Nc1cccc(C(F)(F)F)c1 |  |
| 7.97 nM | C=CC(=O)Nc1ccc(-c2ccc(NC(=O)Nc3ccccc3Cl)cc2)cn1 |  |
| 59.9 nM | C=CC(=O)Nc1ccc(-c2ccc(NC(=O)Nc3ccc(OC(F)(F)F)cc3)cc2)cn1 |  |
| > 500 nM | Nc1ncc2ccc(-c3ccc(NC(=O)C4(C(=O)Nc5cc(Br)ccc5OC(F)(F)F)CC4)cc3)cc2n1 |  |
| > 500 nM | C=CC(=O)Nc1ccc(-c2ccc(NC(=O)Nc3c(C)cccc3C)cc2)cn1 |  |
| 14.7 nM | Nc1ncc2ccc(-c3ccc(NC(=O)C4(C(=O)Nc5cc(OC(F)(F)F)ccc5Br)CC4)cc3)cc2n1 |  |
| 21.2 nM | Nc1ncc2ccc(-c3ccc(NC(=O)C4(C(=O)Nc5cc(C(F)(F)F)cc(C(F)(F)F)c5)CC4)cc3)cc2n1 |  |
| > 500 nM | Nc1ncc2ccc(-c3ccc(NC(=O)C4(C(=O)Nc5ccc(Br)cc5OC(F)(F)F)CC4)cc3)cc2n1 |  |
